Values of other authors as cited in PMC6784055 (Toxins, 2019).

System: rat brain sodium channel
Conditions: relative to PbTx1

C[C@@H]1C[C@@H]2O[C@@H]3[C@@H](C)[C@H](O)[C@@H]4O[C@]5(C[C@H](O)CO5)[C@@H](C)[C@H](C)[C@H]4O[C@H]3C[C@H]2O[C@H]2C[C@H]3O[C@H]4C/C=C\C[C@H]5O[C@H]6C=C[C@H]7O[C@H]8[C@H](O)[C@H]9O[C@@H](/C=C/[C@H](O)CO)C=CC[C@@H]9O[C@@H]8C[C@@H]7O[C@@H]6C=C[C@@H]5O[C@@H]4C[C@@H](O)[C@]3(C)O[C@@H]2C1 [ciguatoxin-1B]
binding affinity stronger than that of PbTx1: 50 fold
